Like-named read-outs stand apart in the source and are kept apart here.
Tests used:
SH-SY5Y cells = assay: Total ROS/Superoxide detection; format: cell-based, human; details: for Increase of ROS levels compared to the control group: inducers without drug pretreatment (Aβ, pyocyanin, or both)
Experimental: The Total ROS/Superoxide Detection Kit (ENZ-51010, Enzo) was used according to the kit process for evaluating the protective effects of the treatment groups on SH-SY5Y cells seeded at a 2x10^4 density per well in 96-well plates and Aβ was applied. ROS inhibitor N-acetyl cysteine (NAC) was applied at 5 mM concentration to negative control groups 30 minutes before the experiment and after incubation, 100 μL of “ROS/Superoxide Detection Solution” was added to the wells in the kit. The same procedure was done without the application of ROS inhibitor. Fluorometric analysis of stained cells was analyzed with Cytation 3 Cell Imaging Multi-Mode Reader (BioTek) using 490/525 nm and 550/620 nm filter sets.

HMC3 microglia cells = assay: Cell proliferation (cytotoxicity) analysis with xCELLigence, HMC3; format: cell-based, human
Experimental: (§1) Cell proliferation analysis was performed with xCELLigence Real-Time Cell Analysis System to assess TSA, RG108, givinostat, and rifampin concentrations for use in both models. Differentiated SH-SY5Y and HMC3 microglia cells were seeded at a 5x10^3 density per well and incubated 24 h until CI values reached a log phase. The system stopped at the end of 24 h, 100, 10 and 1 μM TSA, givinostat, RG108 and rifampin were applied on current media and the cell viability was tracked. […] Simultaneously, slope plots were drawn using the CI values at 24 and 48 hours, and the statistical significance of the values discovered by assuming the average CI values of the control wells to be 100% was calculated.

[1] = test system: differentiated SH-SY5Y cells; assay: Cell proliferation (cytotoxicity) analysis with xCELLigence, SH-SY5Y; format: cell-based, human
Experimental: as §1

[2] = test system: differentiated SH-SY5Y cells; assay: Cell viability against Aβ-induced neurotoxicity, xCELLigence; format: cell-based, human
Experimental: Pathological deterioration in AD is mainly associated with overproduction of the Aβ peptide and the Aβ (1–42) variant is the toxic form that is more predominant in Alzheimer’s patients. In this study, a modified oligomeric Aβ (1–42) neurotoxicity analysis protocol was applied in order to elucidate the effects of treatment groups on SH-SY5Y cell viability in the presence of Aβ [56]. In order to model Aβ-induced neurotoxicity in vitro, an oligomeric form of the Aβ1–42 peptide was prepared by diluting with ice-cold Ham’s F12 Nutrient Mixture medium dissolved in PBS containing 0.02 M NaOH at a final concentration of 50 μM and kept in a 37°C incubator for 7 days to form peptide aggregates prior to the experiments. 5x10^3 SH-SY5Y cells were differentiated inside the xCELLigence instrument for 5 days and treated with 100 nM TSA, RG108, givinostat, rifampin; 100 ng/ml LPS+IFN-ɣ or 1 μg/ml CFS+IFN-ɣ for 24 h in order to evaluate neuroprotection. The co-culture was performed in the same way as the neuroinflammation model. Neurotoxicity was obtained instead of neuroinflammation by diluting to 5 μM with fresh medium and adding Aβ1–42 aggregates to the wells for 24 h in 100 μl of medium. Cell viability data was then monitored for 24 h and analyzed within the instrument.

[3] = test system: differentiated SH-SY5Y cells; assay: Annexin V-PI staining of Aβ-induced cell death, flow cytometry; format: cell-based, human; details: for Necrotic effect (Q5-UL): control 1.6%; for Apoptotic effect (early apoptosis + late apoptosis): control 1.9%; for Percentage of living cells (Live): control 96.5%
Experimental: To determine neuronal apoptosis associated with Aβ exposure, 25x10^3 differentiated SH-SY5Y cells were seeded in 24-well plates and Aβ was applied. After 24 h, cells were trypsinized and staining was performed according to the CF 488A Annexin V and PI Apoptosis Kit (Biotium, USA, Cat. No: 30061) protocol. After washing the cells with 1xPBS, the working solution was prepared by diluting the PI with Annexin V binding buffer included in the kit. 5 μl Annexin V and 2 μl PI working solution were added to the centrifuge tubes and binded with 100 μl Annexin V binding buffer. After the samples were incubated for 30 minutes on ice and in the dark, 400 μl of Annexin V binding buffer was added to each tube and the samples were measured and analyzed in a BD Accuri™ C6 flow cytometry device.

APP/PS1 mice = test system: APP/PS1 mice; parameters: method as in PMID 33397436; details: cited from earlier work
[4] = 24 h pretreatment (drugs 100 nM; CFS 1 μg/ml + IFN-γ; LPS 100 ng/ml + IFN-γ), then 5 μM Aβ (1–42) aggregates 24 h
[5] = pretreatment (drugs 100 nM; LPS 100 ng/ml + IFN-γ; CFS 1 μg/ml + IFN-γ) + 5 μM Aβ 24 h
[6] = 30 minutes NAC 5 mM, treated (drugs 100 nM; LPS 100 ng/ml; CFS 1 μg/ml, with IFN-γ) prior to Aβ exposure
[7] = cells treated (drugs 100 nM; LPS 100 ng/ml; CFS 1 μg/ml, with IFN-γ) before exposure to Aβ, without NAC

Compound | Increase of ROS levels compared to the control group (SH-SY5Y cells; without NAC) | Reduction of HMC3 cell viability compared to the control group (HMC3 microglia cells; 1 μM (printed M), 24 hours) | Reduction of HMC3 cell viability compared to the control group (HMC3 microglia cells; 1 μM (printed M), 48 hours) | Reduction of HMC3 cell viability compared to the control group (HMC3 microglia cells; 10 μM, 24 hours) | Reduction of HMC3 cell viability compared to the control group (HMC3 microglia cells; 10 μM, 48 hours) | Reduction of HMC3 cell viability compared to the control group (HMC3 microglia cells; 100 μM, 24 hours) | Reduction of HMC3 cell viability compared to the control group (HMC3 microglia cells; 100 μM, 48 hours) | Reduction of differentiated SH-SY5Y cell viability ([1]; 1 μM, 24 hours) | Reduction of differentiated SH-SY5Y cell viability ([1]; 1 μM, 48 hours) | Reduction of differentiated SH-SY5Y cell viability ([1]; 10 μM, 24 hours) | Reduction of differentiated SH-SY5Y cell viability ([1]; 10 μM, 48 hours) | Reduction of differentiated SH-SY5Y cell viability ([1]; 100 μM, 24 hours) | Reduction of differentiated SH-SY5Y cell viability ([1]; 100 μM, 48 hours) | CI values compared to the control group [2, 4] | Necrotic effect (Q5-UL) [3, 5] | Apoptotic effect (early apoptosis + late apoptosis) [3, 5] | Percentage of living cells (Live) [3, 5] | Increase of total amount of ROS compared to the control group, with NAC (SH-SY5Y cells; [6]) | Decrease of total ROS amount according to the Aβ group (SH-SY5Y cells; [7]) | also measured
Cn1c2cccc(=O)c-2nc2ccccc21 [pyocyanin] | 36.49% | – | – | – | – | – | – | – | – | – | – | – | – | – | – | – | – | – | – | Decrease of amount of ROS, with NAC (SH-SY5Y cells; 30 minutes NAC 5 mM, pyocyanin without Aβ): 0.85%
CCN(CC)Cc1ccc2cc(COC(=O)Nc3ccc(C(=O)NO)cc3)ccc2c1 [Givinostat, givinostat] | – | 35.01% | 62.78% | 58.19% | 92.67% | 93.58% | 99.29% | 88.72% | 90.56% | 96.85% | 96.9% | 98.06% | 98.77% | 136.2% | 7.8% | 7.8% | 84.3% | 22.87% | 30.49% | IC50 (HMC3 microglia cells; Homo sapiens, HMC3, 24 h, from CI values at 24th hour, 1, 10 and 100 μM tested, read-out: IC50 Values 24h HMC3): 11800 nM; IC50 (HMC3 microglia cells; Homo sapiens, HMC3, 48 h, from CI values at 48th hour, 1, 10 and 100 μM tested, read-out: IC50 Values 48h HMC3): 539 nM; IC50 ([1]; Homo sapiens, SH-SY5Y, 24 h, from CI values at 24th hour, 1, 10 and 100 μM tested, read-out: IC50 Values 24h SH-SY5Y): 2780 nM; IC50 ([1]; Homo sapiens, SH-SY5Y, 48 h, from CI values at 48th hour, 1, 10 and 100 μM tested, read-out: IC50 Values 48h SH-SY5Y): 1420 nM; Reduction of cell viability compared to the Aβ positive control group ([3]; 100 nM + 5 μM Aβ): 0.5%; Increase of total amount of ROS compared to the control group (SH-SY5Y cells; cells treated (drugs 100 nM; LPS 100 ng/ml; CFS 1 μg/ml, with IFN-γ) before exposure to Aβ, without NAC, not significant): 13.09%
Aβ: oligomeric/aggregated Aβ1–42 peptide used at 5 μM to induce neurotoxicity | 43.58% | – | – | – | – | – | – | – | – | – | – | – | – | – | – | – | – | – | – | CI values compared to the control group ([2]; 5 μM Aβ (1–42) aggregates alone, 24 h): 48.5%; Necrotic effect (Q5-UL) ([3]; 5 μM Aβ alone 24 h): 6.7%; Apoptotic effect (early apoptosis + late apoptosis) ([3]; 5 μM Aβ alone 24 h): 8.5%; Percentage of living cells (Live) ([3]; 5 μM Aβ alone 24 h): 84.8%; Increase of total amount of ROS compared to the control group, with NAC (SH-SY5Y cells; 30 minutes ROS inhibitor NAC 5 mM, inducers without drug pretreatment (Aβ, or Aβ with pyocyanin)): 6.62%
CC(/C=C/C(=O)NO)=C\[C@@H](C)C(=O)c1ccc(N(C)C)cc1 [TSA, Trichostatin A] | – | 0.04% | 1.75% | 13.88% | 21.94% | 31.68% | 51.2% | 91.34% | 97.97% | 97.43% | 98.9% | 97.86% | 99.79% | 137% | 5.6% | 5.8% | 88.6% | 0.7% | 53.43% | IC50 (HMC3 microglia cells; from CI values at 48th hour, 1, 10 and 100 μM tested, read-out: IC50 Values 48h HMC3): 156 nM; IC50 ([1]; from CI values at 24th hour, 1, 10 and 100 μM tested, read-out: IC50 Values 24h SH-SY5Y): 596 nM; IC50 ([1]; from CI values at 48th hour, 1, 10 and 100 μM tested, read-out: IC50 Values 48h SH-SY5Y): 312 nM; Decrease of total amount of ROS compared to the control group (SH-SY5Y cells; cells treated with compounds (100 nM) before exposure to Aβ, without NAC): 9.85%; Effect on Aβ plaques and soluble Aβ oligomers in the brain (APP/PS1 mice): reduce Aβ plaques and soluble Aβ oligomers in the brain; Effect on learning and memory behaviors (APP/PS1 mice): improve learning and memory behaviors

— article PMC8631675, “Neuroprotective effects of some epigenetic modifying drugs’ on Chlamydia pneumoniae-induced neuroinflammation: A novel model” (PLoS ONE, 2021)
